Measured values as given in the supplement of paper PMC10307832.

Legend:
Assay in all cases: relative viability (nuclei count vs DMSO), 5 days (fraction); higher = more cells survive
[1] = compound: C1CCC(CC1)N(CCNCCC2=C3C(=C(C=C2)O)NC(=O)CO3)C(=O)CCNCCC4=CC(=C(C=C4)Cl)Cl [AZ505] + O=C(c1cc(Cc2n[nH]c(=O)c3ccccc23)ccc1F)N1CCN(C(=O)C2CC2)CC1 [Olaparib] (partner 8 µM)
In short: (§1)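 For relative viability, nuclei counts in treated wells were divided by those in vehicle wells. Lung cancer cell lines had been pin-tool dosed in 1536-well plates the day after seeding and cultured for 5 days, then fixed and stained in one step (final 0.05% Triton X-100, 1% formaldehyde, 1 ug/ml Hoechst) and imaged at 4×. Doses were one drug alone or a fixed anchor-drug dose plus five library-drug doses (not always all listed) in √10 steps, and values are duplicate-plate medians.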

[2] = compound: C1CCC(CC1)N(CCNCCC2=C3C(=C(C=C2)O)NC(=O)CO3)C(=O)CCNCCC4=CC(=C(C=C4)Cl)Cl [AZ505] + Nc1nc2[nH]cc(CCc3ccc(C(=O)N[C@@H](CCC(=O)O)C(=O)O)cc3)c2c(=O)[nH]1 [Pemetrexed] (partner 0.2 µM)
In short: as §1

[3] = compound: Cn1c(=O)n(-c2ccc(C(C)(C)C#N)cc2)c2c3cc(-c4cnc5ccccc5c4)ccc3ncc21 [Dactolisib] + O=C(CCCCCCC(=O)Nc1ccccc1)NO [Vorinostat] (partner 1 µM)
In short: as §1

[4] = compound: Cn1c(=O)n(-c2ccc(C(C)(C)C#N)cc2)c2c3cc(-c4cnc5ccccc5c4)ccc3ncc21 [Dactolisib] + CS(=O)(=O)N1CCN(Cc2cc3nc(-c4cccc5[nH]ncc45)nc(N4CCOCC4)c3s2)CC1 [Pictilisib] (partner 1 µM)
In short: as §1

Cell Line | relative viability ([1]; first compound 0.08 µM) | relative viability ([1]; first compound 0.253 µM) | relative viability ([1]; first compound 0.8 µM) | relative viability ([1]; first compound 2.53 µM) | relative viability ([1]; first compound 8 µM) | relative viability ([2]; first compound 0.08 µM) | relative viability ([2]; first compound 0.253 µM) | relative viability ([2]; first compound 0.8 µM) | relative viability ([2]; first compound 2.53 µM) | relative viability ([2]; first compound 8 µM) | relative viability ([3]; first compound 0.002 µM) | relative viability ([3]; first compound 0.006325 µM) | relative viability ([3]; first compound 0.02 µM) | relative viability ([3]; first compound 0.06325 µM) | relative viability ([3]; first compound 0.2 µM) | relative viability ([4]; first compound 0.002 µM) | relative viability ([4]; first compound 0.006325 µM) | relative viability ([4]; first compound 0.02 µM) | relative viability ([4]; first compound 0.06325 µM) | relative viability ([4]; first compound 0.2 µM)
LK-2 | 0.597 | 0.583 | 0.87 | 0.822 | 0.784 | 0.215 | 0.254 | 0.294 | 0.283 | 0.313 | 0.317 | 0.247 | 0.294 | 0.239 | 0.213 | 0.479 | 0.547 | 0.499 | 0.33 | 0.251
LOU-NH91 | 0.87 | 0.897 | 0.886 | 0.903 | 0.894 | 0.327 | 0.338 | 0.324 | 0.382 | 0.349 | 0.903 | 0.898 | 0.784 | 0.524 | 0.529 | 0.586 | 0.499 | 0.525 | 0.494 | 0.496
NCI-H522 | 0.607 | 0.645 | 0.698 | 0.698 | 0.685 | 1 | 1.04 | 1.03 | 1.22 | 0.808 | 0.861 | 0.833 | 0.79 | 0.822 | 0.657 |  |  |  |  | 
NCI-H727 | 0.653 | 0.675 | 0.667 | 0.724 | 0.662 |  |  |  |  |  |  | 1.31 | 1.16 | 0.981 | 1.3 | 0.275 | 0.339 | 0.396 | 0.212 | 0.227
NCI-H1299 | 0.897 | 0.925 | 0.932 | 0.885 | 0.876 |  |  |  |  |  |  |  |  |  |  | 0.794 | 0.701 | 0.659 | 0.351 | 0.253
NCI-H1563 |  |  |  |  |  | 0.703 | 0.782 | 0.875 | 0.771 | 0.769 |  |  |  |  |  | 0.682 | 0.624 | 0.625 | 0.651 | 0.573
NCI-H1648 |  | 0.794 | 0.795 | 0.754 | 1.38 |  | 0.743 | 0.679 | 0.79 | 0.953 | 0.506 | 0.421 | 0.654 | 0.435 | 0.203 |  |  |  |  | 
NCI-H1703 | 0.319 | 0.502 | 0.438 | 0.411 | 0.656 |  |  |  |  |  |  |  |  |  |  |  |  | 0.257 | 0.228 | 0.192
NCI-H1792 | 0.432 | 0.447 | 0.404 | 0.517 | 0.321 | 0.702 | 0.509 | 0.609 | 1.01 | 0.901 |  |  |  |  |  | 0.323 | 0.246 | 0.218 | 0.0901 | 0.0962
NCI-H2342 | 0.428 | 0.463 | 0.491 | 0.485 | 0.488 | 0.711 | 0.737 | 0.836 | 0.776 | 0.853 | 0.656 | 0.832 | 0.698 | 0.75 | 0.568 |  |  |  |  | 
SW 900 | 0.853 | 0.775 | 0.86 | 0.932 | 0.987 | 0.495 | 0.516 | 0.494 | 0.498 | 0.511 | 0.478 | 0.443 | 0.434 | 0.216 | 0.24 |  |  |  |  | 
